Data on one compound can be found in patent US20220168298A1, “CANCER TREATMENT” (Janssen Pharmaceutica NV, priority 2019, published 2022).

Setting [1] is: Regimen 2 6 mg continuous (n = 78).

Read-outs that look alike come from different tables or passages of the source.

Protocol: Study treatment is administered on 28-day cycles. Prior to interim analysis 1, there were 2 treatment regimens.
Safety was assessed continuously by the investigator and based on medical review of AE reports and the results of vital sign measurements, physical examinations, clinical laboratory tests, ECOG performance status, and other safety evaluations.
Safety data are presented for the safety population (N=207, enrolled between May 7, 2015, and Dec. 5, 2017), defined as patients who received at least 1 dose of study treatment.
An analysis was done on 99 NCT02365597 patients who received the dose regimen of 8 mg/day continuous (pharmacodynamically guided uptitrated to 9 mg/d per serum phosphate as described herein, Regimen 3) to explore efficacy among high-risk patients. […] High-risk patients are defined as patients meeting one or more of the following criteria: • age ≥75 years; • ECOG PS 2 (Eastern Cooperative Oncology Group Performance Status 2; Oken M, Creech R, Tormey D, et al. Toxicity and response criteria of the Eastern Cooperative Oncology Group. Am J Clin Oncol. 1982; 5:649-655) • hemoglobin <10 g/dL; • visceral metastases of the liver, lung and/or bone; • 2 or 3 Bellmunt risk factors (Bellmunt J, Choueiri T K, Fougeray R, et al: Prognostic factors in patients with advanced transitional cell carcinoma of the urothelial tract experiencing treatment failure with platinum-containing regimens.
Final analysis for NCT02365597 was conducted, per protocol 12 months after the last subject was enrolled.

For the compound `COc1cc(OC)cc(N(CCNC(C)C)c2ccc3ncc(-c4cnn(C)c4)nc3c2)c1` [erdafitinib, N-(3,5-dimethoxyphenyl)-N′-(1-methylethyl)-N-[3-(1-methyl-1H-pyrazol-4-yl)quinoxalin-6-yl]ethane-1,2-diamine], under setting [1], the “TRAE Nail dystrophy, Grade ≥3” value is on record as 0 n; the “TRAE Palmar-plantar erythrodysaesthesia syndrome, Grade ≥3” value came out at 0 n; the “TRAE Paronychia, Grade ≥3” value came out at 0 n. Also, the treatment-related deaths result (across all dose regimens (N = 207)) is recorded as “no treatment-related deaths”. Besides, the treatment-related deaths result (final analysis, 101 patients) is recorded as “no treatment-related deaths”. For the same compound, under “human, in vivo”, the “CSR events resolved on the data cut-off date” value is reported as 63%; the “CSR events resolved on the data cut-off date, n/N” value is recorded as 17/27; the “CSR events that were Grade 1 or 2” value came out at 85%; the “CSR events that were Grade 1 or 2, n/N” value was 23/27. Moreover, for the setting “human, in vivo”, the “Treatment discontinuation rates for adverse events” value is recorded as “approximately 20%”, the “dosage discontinued for CSR” value was determined as 3 patients, the “dosage interrupted for CSR” value worked out at 8 patients and the “dosage reduced for CSR” value came to 13 patients. Also, where the note is “human, in vivo”, the “grade 3/4 serious adverse events proportions by subgroup, range” value was 26.7-36.4%; the “ongoing CSR events that were Grade 1” value was determined as 60%; the “ongoing CSR events that were Grade 1, n/N” value is given as 6/10; the patients reporting retinopathy came to 2 patients. Where the note is “human, in vivo”, the “patients reporting retinopathy, grade 2” value was 1 n; the “patients reporting retinopathy, grade 3” value is 1 n; the “patients with Central serous retinopathy (CSR) events” value turned out to be 27%; the “patients with Central serous retinopathy (CSR) events, n/N” value is on record as 27/101.
